Assay results from publication PMC8795197, “Safety and activity of WX-0593 (Iruplinalkib) in patients with ALK- or ROS1-rearranged advanced non-small cell lung cancer: a phase 1 dose-escalation and dose-expansion trial” (Signal Transduction and Targeted Therapy, 2022).
Like-named read-outs stand apart in the source and are kept apart here.

Experiments:
Ba/F3 CD74-ROS1-D2033N = assay: Growth of transfected Ba/F3 cells (CellTiter-Glo, 3 days); format: cell-based; conditions: Mus musculus, BaF3
Method: (§1) Harvest cells during the logarithmic growth period and count cells using blood counting chamber. Adjust cell concentration with culture medium. Add 90µl cell suspensions to two 96-well plates to the final cell density as described before. Incubate the plate overnight in humidified incubator at 37℃ with 5% CO2. Dispense 10µl drug solution (10×) to each well (triplicate for each concentration), and the DMSO final concentration in culture medium is 0.1% [v/v]. Culture the plates for 3 days.On Day 3, Read luminescent using Multi Label Reader. The software of GraphPad Prism was used to calculate IC50. The graphical curves were fitted using a nonlinear regression model with a sigmoidal dose response.

Ba/F3 CD74-ROS1-L1951R = assay: as above; format: cell-based; conditions: Mus musculus, BaF3
Method: as §1

Ba/F3 CD74-ROS1-S1986F = assay: as above; format: cell-based; conditions: Mus musculus, BaF3
Method: as §1

Ba/F3 CD74-ROS1-S1986Y = assay: as above; format: cell-based; conditions: Mus musculus, BaF3
Method: as §1

Ba/F3 ALK-C1156Y = assay: as above; format: cell-based; conditions: Mus musculus, BaF3
Method: as §1, with “days. On” for “days.On”

Ba/F3 ALK-F1174C = assay: as above; format: cell-based
Method: as §1, with “days. On” for “days.On”

Ba/F3 ALK-F1174L = assay: as above; format: cell-based; conditions: Mus musculus, BaF3
Method: as §1, with “days. On” for “days.On”

Ba/F3 ALK-F1174V = assay: as above; format: cell-based; conditions: Mus musculus, BaF3
Method: as §1, with “days. On” for “days.On”

Ba/F3 ALK-G1202R = assay: as above; format: cell-based; conditions: Mus musculus, BaF3
Method: as §1, with “days. On” for “days.On”

Ba/F3 ALK-G1202del = assay: as above; format: cell-based; conditions: Mus musculus, BaF3
Method: as §1, with “days. On” for “days.On”

Ba/F3 ALK-G1269A = assay: as above; format: cell-based; conditions: Mus musculus, BaF3
Method: as §1, with “days. On” for “days.On”

Ba/F3 ALK-I1171N = assay: as above; format: cell-based; conditions: Mus musculus, BaF3
Method: as §1, with “days. On” for “days.On”

Ba/F3 ALK-I1171S = assay: as above; format: cell-based
Method: as §1, with “days. On” for “days.On”

Ba/F3 ALK-I1171T = assay: as above; format: cell-based; conditions: Mus musculus, BaF3
Method: as §1, with “days. On” for “days.On”

Ba/F3 ALK-L1152P = assay: as above; format: cell-based; conditions: Mus musculus, BaF3
Method: as §1, with “days. On” for “days.On”

Ba/F3 ALK-L1152R = assay: as above; format: cell-based; conditions: Mus musculus, BaF3
Method: as §1, with “days. On” for “days.On”

Ba/F3 ALK-L1196M = assay: as above; format: cell-based; conditions: Mus musculus, BaF3
Method: as §1, with “days. On” for “days.On”

Ba/F3 ALK-T1151Tins = assay: as above; format: cell-based; conditions: Mus musculus, BaF3
Method: as §1, with “days. On” for “days.On”

Ba/F3 ALK-V1180L = assay: as above; format: cell-based; conditions: Mus musculus, BaF3
Method: as §1, with “days. On” for “days.On”

Ba/F3 ALK-WT = assay: as above; format: cell-based; conditions: Mus musculus, BaF3
Method: as §1, with “days. On” for “days.On”

[1] = tested on: Ba/F3 SLC34A2-ROS1-G2032R; assay: as above; format: cell-based; conditions: Mus musculus, BaF3
Method: as §1

[2] = tested on: Ba/F3 SLC34A2-ROS1-L2026M; assay: as above; format: cell-based; conditions: Mus musculus, BaF3
Method: as §1

Ba/F3 SLC34A2-ROS1 = assay: as above; format: cell-based; conditions: Mus musculus, BaF3
Method: as §1

LU-01-0319R NSCLC PDX = assay: PDX model resistant to crizotinib; format: in vivo; conditions: WX-0593 2.5, 5, 10 mg/kg; ceritinib 10/20 mg/kg; brigatinib 10 mg/kg
[3] = tested on: NSCLC patients with ALK or ROS1 rearrangement; conditions: cited from earlier work
[4] = tested on: patients treated with ALK TKIs; conditions: cited from earlier work
[5] = Mus musculus, BaF3, ALK-F1174C, first listing (r10), read-out: IC50
[6] = Mus musculus, BaF3, ALK-F1174C, second listing (r15), read-out: IC50
[7] = Mus musculus, BaF3, ALK-I1171S, first listing (r12), read-out: IC50
[8] = Mus musculus, BaF3, ALK-I1171S, second listing (r19), read-out: IC50
[9] = Grades 1 and 2 adverse reactions

| Compound | IC50 (Ba/F3 CD74-ROS1-D2033N) | IC50 (Ba/F3 CD74-ROS1-L1951R) | IC50 (Ba/F3 CD74-ROS1-S1986F) | IC50 (Ba/F3 CD74-ROS1-S1986Y) | IC50 (Ba/F3 ALK-C1156Y; ALK-C1156Y, read-out: IC50) | IC50 (Ba/F3 ALK-F1174C; [5]) | IC50 (Ba/F3 ALK-F1174C; [6]) | IC50 (Ba/F3 ALK-F1174L; ALK-F1174L, read-out: IC50) | IC50 (Ba/F3 ALK-F1174V; ALK-F1174V, read-out: IC50) | IC50 (Ba/F3 ALK-G1202R; ALK-G1202R, read-out: IC50) | IC50 (Ba/F3 ALK-G1202del; ALK-G1202del, read-out: IC50) | IC50 (Ba/F3 ALK-G1269A; ALK-G1269A, read-out: IC50) | IC50 (Ba/F3 ALK-I1171N; ALK-I1171N, read-out: IC50) | IC50 (Ba/F3 ALK-I1171S; [7]) | IC50 (Ba/F3 ALK-I1171S; [8]) | IC50 (Ba/F3 ALK-I1171T; ALK-I1171T, read-out: IC50) | IC50 (Ba/F3 ALK-L1152P; ALK-L1152P, read-out: IC50) | IC50 [1] | IC50 [2] | IC50 (Ba/F3 SLC34A2-ROS1) | further results |
| --- | --- | --- | --- | --- | --- | --- | --- | --- | --- | --- | --- | --- | --- | --- | --- | --- | --- | --- | --- | --- | --- |
| CCc1cc2c(cc1N1CCC(N3CCOCC3)CC1)C(C)(C)c1[nH]c3cc(C#N)ccc3c1C2=O [Alectinib] | 5070 nM | 5410 nM | 10000 nM | 10000 nM |  |  |  |  |  |  |  |  |  |  |  |  |  |  |  |  |  |
| Cc1cc(Nc2ncc(Cl)c(Nc3ccccc3S(=O)(=O)C(C)C)n2)c(OC(C)C)cc1C1CCNCC1 [Ceritinib] | 159 nM | 642 nM | 49.6 nM | 32.5 nM | 87 nM | 95 nM | 79.5 nM | 21 nM | 53.7 nM | 502 nM | 925 nM | 16 nM | 41.8 nM | 97 nM | 45.8 nM | 27.8 nM | 71.5 nM | 1100 nM | 54 nM | 14 nM | IC50 (Ba/F3 ALK-L1152R; ALK-L1152R, read-out: IC50): 116 nM; IC50 (Ba/F3 ALK-L1196M; ALK-L1196M, read-out: IC50): 33 nM; IC50 (Ba/F3 ALK-T1151Tins; ALK-T1151Tins, read-out: IC50): 96 nM; IC50 (Ba/F3 ALK-V1180L; ALK-V1180L, read-out: IC50): 15.6 nM; IC50 (Ba/F3 ALK-WT; ALK-WT, read-out: IC50): 13 nM; anti-tumor effect (LU-01-0319R NSCLC PDX): significant effects against crizotinib-induced resistance; ORR ([3]; ALK-rearranged patients): 58%; ALT increased [4, 9]: 35%; diarrhea [4, 9]: 75%; fatigue [4, 9]: 47%; nausea [4, 9]: 82%; vomiting [4, 9]: 65%; diarrhea, % of patients [4]: 75%; dose reduction due to TEAEs, % of patients [4]: 62% |
| C[C@@H](Oc1cc(-c2cnn(C3CCNCC3)c2)cnc1N)c1c(Cl)ccc(F)c1Cl [Crizotinib] | […] | […] |  |  |  |  |  |  |  |  |  |  |  |  |  |  |  | […] | 162 nM | 8 nM | anti-tumor effect (LU-01-0319R NSCLC PDX): resistant |
| C[C@@H]1CN(C(=O)c2ccc(NC(=O)c3cc(O[C@H](C)c4c(Cl)ccc(F)c4Cl)c(N)nn3)cc2)C[C@H](C)N1 [Ensartinib] | 195 nM | 970 nM | 192 nM | 189 nM | 17 nM | 62 nM | 62.2 nM | 29 nM | 54.5 nM | 409 nM | 932 nM | 212 nM | 18.4 nM | 39 nM | 41.5 nM | 28 nM | 25.7 nM | 1640 nM | 278 nM | 49 nM | IC50 (Ba/F3 ALK-L1152R; ALK-L1152R, read-out: IC50): 71.4 nM; IC50 (Ba/F3 ALK-L1196M; ALK-L1196M, read-out: IC50): 98 nM; IC50 (Ba/F3 ALK-T1151Tins; ALK-T1151Tins, read-out: IC50): 42 nM; IC50 (Ba/F3 ALK-V1180L; ALK-V1180L, read-out: IC50): 16.6 nM; IC50 (Ba/F3 ALK-WT; ALK-WT, read-out: IC50): 14 nM; ORR ([3]; ALK-rearranged patients): 60%; rash, % of patients [4]: 56% |
| C[C@H]1Oc2cc(cnc2N)-c2c(nn(C)c2C#N)CN(C)C(=O)c2ccc(F)cc21 [Lorlatinib] | 1.7 nM | 5.1 nM | 1.1 nM | 1.5 nM |  |  |  |  |  |  |  |  |  |  |  |  |  | 197 nM | < 1 nM | < 1 nM | IC50 (Ba/F3 ALK-C1156Y): 4 nM; IC50 (Ba/F3 ALK-F1174C): 15.9 nM; IC50 (Ba/F3 ALK-F1174C; Mus musculus, BaF3): 11 nM; IC50 (Ba/F3 ALK-F1174L): 4 nM; IC50 (Ba/F3 ALK-F1174V): 16.1 nM; IC50 (Ba/F3 ALK-G1202R): 26 nM; IC50 (Ba/F3 ALK-G1202del): 215 nM; IC50 (Ba/F3 ALK-G1269A): 35 nM; IC50 (Ba/F3 ALK-I1171N): 41.1 nM; IC50 (Ba/F3 ALK-I1171S): 52.8 nM; IC50 (Ba/F3 ALK-I1171S; Mus musculus, BaF3): 33 nM; IC50 (Ba/F3 ALK-I1171T): 19 nM; IC50 (Ba/F3 ALK-L1152P): 4.6 nM; IC50 (Ba/F3 ALK-L1152R): 17.4 nM; IC50 (Ba/F3 ALK-L1196M): 54 nM; IC50 (Ba/F3 ALK-T1151Tins): 7 nM; IC50 (Ba/F3 ALK-V1180L): 5.2 nM; IC50 (Ba/F3 ALK-WT): 4 nM; ORR ([3]; ALK TKI-naive patients with ROS1 rearrangement): 62%; ORR ([3]; ROS1 rearrangement, crizotinib as the only TKI): 35% |
